{
  "source": "ChEMBL document CHEMBL1131558",
  "about": "“Synthesis of Dolastatin 15 mimetic peptoids” (1998)",
  "key": {"[1]": {"system": "P388", "experiment": "Anticancer activity against lymphocytic leukemia P388 cells was determined", "format": "functional", "conditions": "Mus musculus, read-out: ED50 (the source's name)"}, "[2]": {"system": "L1210", "experiment": "Anticancer activity was determined by the inhibition of colony formation in liquid culture of L-1210 leukemia cells up to the concentration 31.6 ug/mL; NI means No inhibition", "format": "functional, cell-based", "conditions": "Mus musculus"}, "[3]": {"system": "LNCaP", "experiment": "Anticancer activity was determined by the inhibition of colony formation in liquid culture of up to the concentration 31.6 ug/mL; NI means No inhibition", "format": "functional, cell-based", "conditions": "Homo sapiens"}, "[4]": {"system": "SK-OV-3", "experiment": "Anticancer activity was determined by the inhibition of colony formation in liquid culture of SK-OV-3 ovarian cancer cells up to the concentration 31.6 ug/mL; NI means No inhibition", "format": "functional, cell-based", "conditions": "Homo sapiens"}, "[5]": {"species": "Homo sapiens", "experiment": "Anticancer activity was determined by the inhibition of colony formation in liquid culture of KB human epidermoid carcinoma cells up to the concentration 31.6 ug/mL; NI means No inhibition", "format": "functional"}},
  "note": "Calls of active or inactive are those of the source. No cut-off for these calls is given here. Square brackets hold non-standard residues; d marks the D form. Peptide text beside a SMILES is read from it. * marks the point of attachment. X1 = COC1=CC(=O)N(C(=O)[C@@H](O*)C(C)C)[C@H]1Cc1ccccc1; NMe2Val = CC(C)[C@@H](C(=O)*)N(C)C; NMeV = CN[C@H](C(=O)O)C(C)C",
  "data": [
    {"smiles": "CC[C@H](C)[C@@H]([C@@H](CC(=O)N1CCC[C@H]1[C@H](OC)[C@@H](C)C(=O)N[C@@H](Cc1ccccc1)c1nccs1)OC)N(C)C(=O)[C@@H](NC(=O)[C@H](C(C)C)N(C)C)C(C)C", "note": "[DOLASTATIN-10]", "values": [
      {"measurement": "EC50", "setting": "[1]", "result": 0.1, "unit": "ng/mL"}
    ]},
    {"smiles": "CC(C)N(CC(=O)O)C(=O)CN(C(=O)[C@H]1CCCN1C(=O)[C@H]1CCCN1C(=O)CN(C(=O)CNCc1ccccc1)C(C)C)C(C)C", "note": "(single isomer, unassigned)", "values": [
      {"measurement": "Activity", "setting": "[2]", "result": "inactive"},
      {"measurement": "Activity", "setting": "[3]", "result": "inactive"},
      {"measurement": "Activity", "setting": "[4]", "result": "inactive"},
      {"measurement": "Activity", "setting": "[5]", "result": "inactive"}
    ]},
    {"smiles": "CC(=O)N(CC(=O)N(CC(=O)N1CCC[C@@H]1C(=O)N1CCC[C@@H]1C(=O)N(CC(=O)N(CC(=O)N(C(C)C)C(C)C)C(C)C)Cc1ccccc1)C(C)C)Cc1ccccc1", "note": "(single isomer, unassigned)", "values": [
      {"measurement": "Activity", "setting": "[2]", "result": "inactive"},
      {"measurement": "Activity", "setting": "[3]", "result": "inactive"},
      {"measurement": "Activity", "setting": "[4]", "result": "inactive"},
      {"measurement": "Activity", "setting": "[5]", "result": "inactive"}
    ]},
    {"smiles": "CC(=O)N(CC(=O)N(CC(=O)N1CCC[C@@H]1C(=O)N1CCC[C@@H]1C(=O)N(CC(=O)N(CC(=O)N(C(C)C)C(C)C)C(C)C)C(C)C)C(C)C)Cc1ccccc1", "note": "(single isomer, unassigned)", "values": [
      {"measurement": "Activity", "setting": "[2]", "result": "inactive"},
      {"measurement": "Activity", "setting": "[3]", "result": "inactive"},
      {"measurement": "Activity", "setting": "[4]", "result": "inactive"},
      {"measurement": "Activity", "setting": "[5]", "result": "inactive"}
    ]},
    {"smiles": "CC(=O)N(CC(=O)N(CC(=O)N1CCC[C@@H]1C(=O)N1CCC[C@@H]1C(=O)N(CC(=O)N(CC(=O)O)C(C)C)C(C)C)C(C)C)Cc1ccccc1", "note": "(single isomer, unassigned)", "values": [
      {"measurement": "Activity", "setting": "[2]", "result": "inactive"},
      {"measurement": "Activity", "setting": "[3]", "result": "inactive"},
      {"measurement": "Activity", "setting": "[4]", "result": "inactive"},
      {"measurement": "Activity", "setting": "[5]", "result": "inactive"}
    ]},
    {"smiles": "CC(=O)N(CC(=O)N(CC(=O)N1CCC[C@H]1C(=O)N1CCCC1C(=O)N(CC(=O)N(CC(=O)N(C(C)C)C(C)C)C(C)C)C(C)C)C(C)C)Cc1ccccc1", "note": "(single isomer, unassigned)", "values": [
      {"measurement": "Activity", "setting": "[2]", "result": "inactive"},
      {"measurement": "Activity", "setting": "[3]", "result": "inactive"},
      {"measurement": "Activity", "setting": "[4]", "result": "inactive"},
      {"measurement": "Activity", "setting": "[5]", "result": "inactive"}
    ]},
    {"smiles": "COC1=CC(=O)N(C(=O)[C@@H](OC(=O)[C@@H]2CCCN2C(=O)[C@@H]2CCCN2C(=O)[C@H](C(C)C)N(C)C(=O)[C@@H](NC(=O)[C@H](C(C)C)N(C)C)C(C)C)C(C)C)[C@H]1Cc1ccccc1", "note": "[DOLASTATIN 15] (NMe2Val-V[NMeV]PP-X1)", "values": [
      {"measurement": "EC50", "setting": "[1]", "result": 2.4, "unit": "ng/mL"}
    ]},
    {"smiles": "CC(=O)N(CC(=O)N(CC(=O)N1CCC[C@H]1C(=O)N1CCC[C@H]1C(=O)N(CC(=O)N(CC(=O)N(C(C)C)C(C)C)C(C)C)C(C)C)C(C)C)Cc1ccccc1", "values": [
      {"measurement": "Activity", "setting": "[2]", "result": "inactive"},
      {"measurement": "Activity", "setting": "[3]", "result": "inactive"},
      {"measurement": "Activity", "setting": "[4]", "result": "inactive"},
      {"measurement": "Activity", "setting": "[5]", "result": "inactive"}
    ]},
    {"smiles": "CC(C)N(CC(=O)N(C(C)C)C(C)C)C(=O)CN(C(=O)[C@H]1CCCN1C(=O)[C@H]1CCCN1C(=O)OCc1ccccc1)C(C)C", "note": "(single isomer, unassigned)", "values": [
      {"measurement": "Activity", "setting": "[2]", "result": "inactive"},
      {"measurement": "Activity", "setting": "[3]", "result": "inactive"},
      {"measurement": "Activity", "setting": "[4]", "result": "inactive"},
      {"measurement": "Activity", "setting": "[5]", "result": "inactive"}
    ]},
    {"smiles": "CC(=O)N(CC(=O)N(CC(=O)N1CCCC1C(=O)N1CCC[C@H]1C(=O)N(CC(=O)N(CC(=O)N(C(C)C)C(C)C)C(C)C)C(C)C)C(C)C)Cc1ccccc1", "note": "(single isomer, unassigned)", "values": [
      {"measurement": "Activity", "setting": "[2]", "result": "inactive"},
      {"measurement": "Activity", "setting": "[3]", "result": "inactive"},
      {"measurement": "Activity", "setting": "[4]", "result": "inactive"},
      {"measurement": "Activity", "setting": "[5]", "result": "inactive"}
    ]}
  ]
}
